From patent US12398107B2, “Fungicidal nitroanilino substituted pyrazoles” (FMC Corporation, priority 2018, dated 2025)

Key:
Type in all cases: in vivo
Phakopsora pachyrhizi = assay: Test D: Asian soybean rust, preventive spray on soybean seedlings; conditions: 100 = 100% disease control, 0 = no control
Text: General protocol for preparing test suspensions for Tests A-F: the test compounds were first dissolved in acetone in an amount equal to 3% of the final volume and then suspended at the desired concentration (in ppm) in acetone and purified water (50/50 mix by volume) containing 250 ppm of the surfactant PEG400 (polyhydric alcohol esters). The resulting test suspensions were then used in Tests A-F.
The test solution was sprayed to the point of run-off on soybean seedlings. The following day the seedlings were inoculated with a spore suspension of Phakopsora pachyrhizi (the causal agent of Asian soybean rust) and incubated in a saturated atmosphere at 22° C. for 24 h and then moved to a growth chamber at 22° C. for 8 days, after which time visual disease ratings were made.
A rating of 100 indicates 100% disease control and a rating of 0 indicates no disease control (relative to the controls). A dash (-) indicates the compound was not tested.

Botrytis cinerea = assay: Test E: tomato Botrytis, preventive spray on tomato seedlings; conditions: 100 = 100% disease control, 0 = no control
Text: (§1) General protocol for preparing test suspensions for Tests A-F: the test compounds were first dissolved in acetone in an amount equal to 3% of the final volume and then suspended at the desired concentration (in ppm) in acetone and purified water (50/50 mix by volume) containing 250 ppm of the surfactant PEG400 (polyhydric alcohol esters). The resulting test suspensions were then used in Tests A-F. The test suspension was sprayed to the point of run-off on tomato seedlings. The following day the seedlings were inoculated with a spore suspension of Botrytis cinerea (the causal agent of tomato Botrytis) and incubated in a saturated atmosphere at 20° C. for 48 h, and then moved to a growth chamber at 24° C. for 3 days, after which time visual disease ratings were made. A rating of 100 indicates 100% disease control and a rating of 0 indicates no disease control (relative to the controls). A dash (-) indicates the compound was not tested.

[1] = test system: Puccinia recondita f. sp. tritici; assay: Test B: wheat leaf rust, preventive spray on wheat seedlings; conditions: 100 = 100% disease control, 0 = no control relative to controls
Text: General protocol for preparing test suspensions for Tests A-F: the test compounds were first dissolved in acetone in an amount equal to 3% of the final volume and then suspended at the desired concentration (in ppm) in acetone and purified water (50/50 mix by volume) containing 250 ppm of the surfactant PEG400 (polyhydric alcohol esters). The resulting test suspensions were then used in Tests A-F. The test solution was sprayed to the point of run-off on wheat seedlings. The following day the seedlings were inoculated with a spore suspension of Puccinia recondita f. sp. tritici (the causal agent of wheat leaf rust) and incubated in a saturated atmosphere at 20° C. for 24 h, and then moved to a growth chamber at 20° C. for 7 days, after which time disease ratings were made. A rating of 100 indicates 100% disease control and a rating of 0 indicates no disease control (relative to the controls). A dash (-) indicates the compound was not tested.

Septoria tritici = assay: Test A: wheat leaf blotch, preventive spray on wheat seedlings; conditions: 100 = 100% disease control, 0 = no control relative to controls
Text: General protocol for preparing test suspensions for Tests A-F: the test compounds were first dissolved in acetone in an amount equal to 3% of the final volume and then suspended at the desired concentration (in ppm) in acetone and purified water (50/50 mix by volume) containing 250 ppm of the surfactant PEG400 (polyhydric alcohol esters). The resulting test suspensions were then used in Tests A-F. The test solution was sprayed to the point of run-off on wheat seedlings. The following day the seedlings were inoculated with a spore suspension of Septoria tritici (the causal agent of wheat leaf blotch) and incubated in a saturated atmosphere at 24° C. for 48 h, and then moved to a growth chamber at 20° C. for 17 days, after which time disease ratings were made. A rating of 100 indicates 100% disease control and a rating of 0 indicates no disease control (relative to the controls). A dash (-) indicates the compound was not tested.

[2] = test system: Blumeria graminis f. sp. tritici; assay: Test C: wheat powdery mildew, preventive spray on wheat seedlings; conditions: rated after 8 days, 100 = 100% disease control, 0 = no control
Text: General protocol for preparing test suspensions for Tests A-F: the test compounds were first dissolved in acetone in an amount equal to 3% of the final volume and then suspended at the desired concentration (in ppm) in acetone and purified water (50/50 mix by volume) containing 250 ppm of the surfactant PEG400 (polyhydric alcohol esters). The resulting test suspensions were then used in Tests A-F. The test suspension was sprayed to the point of run-off on wheat seedlings. The following day the seedlings were inoculated with a spore dust of Blumeria graminis f. sp. tritici, (also known as Erysiphe graminis f. sp. tritici, the causal agent of wheat powdery mildew) and incubated in a growth chamber at 20° C. for 8 days, after which time visual disease ratings were made. A rating of 100 indicates 100% disease control and a rating of 0 indicates no disease control (relative to the controls). A dash (-) indicates the compound was not tested.

Alternaria solani = assay: Test F: tomato early blight, preventive spray on tomato seedlings; conditions: 100 = 100% disease control, 0 = no control
Text: as §1, with “Alternaria solani” for “Botrytis cinerea”, “early blight)” for “Botrytis)”, “27°” for “20°”, “20°” for “24°”

Row | SMILES | Test D disease control rating (Asian soybean rust) (Phakopsora pachyrhizi; 50 ppm) [%] | Test E disease control rating (tomato Botrytis) (Botrytis cinerea; 50 ppm) [%] | Test B disease control rating (wheat leaf rust) ([1]; 50 ppm) [%] | Test A disease control rating (wheat leaf blotch) (Septoria tritici; 50 ppm) [%] | Test C disease control rating (wheat powdery mildew) ([2]; 50 ppm) [%] | Test F disease control rating (tomato early blight) (Alternaria solani; 50 ppm) [%] | pest or weed control at 10 ppm (Phakopsora pachyrhizi; Phakopsora pachyrhizi, 10 ppm, read-out: Test D disease control rating (Asian soybean rust)) [%] | pest or weed control at 50 ppm (Phakopsora pachyrhizi; Phakopsora pachyrhizi, 50 ppm, read-out: Test D disease control rating (Asian soybean rust)) [%] | pest or weed control at 10 ppm (Botrytis cinerea; Botrytis cinerea, 10 ppm, read-out: Test E disease control rating (tomato Botrytis)) [%] | pest or weed control at 50 ppm (Botrytis cinerea; Botrytis cinerea, 50 ppm, read-out: Test E disease control rating (tomato Botrytis)) [%] | pest or weed control at 10 ppm ([1]; 10 ppm, read-out: Test B disease control rating (wheat leaf rust)) [%] | pest or weed control at 50 ppm ([1]; 50 ppm, read-out: Test B disease control rating (wheat leaf rust)) [%] | pest or weed control at 10 ppm (Septoria tritici; Zymoseptoria tritici, 10 ppm, read-out: Test A disease control rating (wheat leaf blotch)) [%] | pest or weed control at 50 ppm (Septoria tritici; Zymoseptoria tritici, 50 ppm, read-out: Test A disease control rating (wheat leaf blotch)) [%] | pest or weed control at 10 ppm ([2]; Blumeria graminis, 192 h, 10 ppm, read-out: Test C disease control rating (wheat powdery mildew)) [%] | pest or weed control at 50 ppm ([2]; Blumeria graminis, 192 h, 50 ppm, read-out: Test C disease control rating (wheat powdery mildew)) [%] | pest or weed control at 10 ppm (Alternaria solani; Alternaria solani, 10 ppm, read-out: Test F disease control rating (tomato early blight)) [%] | pest or weed control at 50 ppm (Alternaria solani; Alternaria solani, 50 ppm, read-out: Test F disease control rating (tomato early blight)) [%]
1 | Cc1nn(C)c(Nc2ccccc2[N+](=O)[O-])c1-c1c(F)cc(F)cc1Br [Compound 154] | 0 | 99 | 80 | 99 | 98 | 51 |  |  |  |  |  |  |  |  |  |  |  | 
2 | Cc1nn(C)c(Nc2c(Cl)cc(F)cc2[N+](=O)[O-])c1-c1ccc(F)cc1Br [Compound 43] | 65 | 96 | 100 | 100 | 97 | 64 |  |  |  |  |  |  |  |  |  |  |  | 
3 | Cc1cc(F)c(Nc2c(-c3ccc(F)cc3Cl)c(C)nn2C)c([N+](=O)[O-])c1 [Compound 93, 4-(2-chloro-4-fluorophenyl)-N-(2-fluoro-4-methyl-6-nitrophenyl)-1,3-dimethyl-1H-pyrazol-5-amine] |  |  |  |  |  |  | 87 | 100 | 99 | 100 | 100 | 100 | 99 | 100 | 97 | 99 | 99 | 99
4 | Cc1nn(C)c(Nc2c(F)cc(F)cc2[N+](=O)[O-])c1-c1ccc(Cl)cc1Cl [Compound 9] | 0 | 97 | 100 | 100 | 97 | 99 |  |  |  |  |  |  |  |  |  |  |  | 
5 | COc1ccc(-c2c(C)nn(C)c2Nc2c(F)cccc2[N+](=O)[O-])c(Cl)c1 [Compound 27] | 87 | 100 | 100 | 100 | 91 | 99 |  |  |  |  |  |  |  |  |  |  |  | 
6 | Cc1nn(C)c(Nc2c(Cl)cccc2[N+](=O)[O-])c1-c1c(F)cc(F)cc1Cl [Compound 152] | 91 | 99 | 100 | 99 | 98 | 92 |  |  |  |  |  |  |  |  |  |  |  | 
7 | COc1ccc(-c2c(C)nn(C)c2Nc2c(F)cc(Cl)cc2[N+](=O)[O-])c(Cl)c1 [Compound 81] | 0 | 95 | 99 | 100 | 89 | 99 |  |  |  |  |  |  |  |  |  |  |  | 
8 | COc1cc(F)c(-c2c(C)nn(C)c2Nc2ccc(OC)cc2[N+](=O)[O-])c(F)c1 [Compound 161] | 0 | 100 | 100 | 100 | 100 | 99 |  |  |  |  |  |  |  |  |  |  |  | 
9 | Cc1cc(Cl)cc([N+](=O)[O-])c1Nc1c(-c2ccc(F)cc2Cl)c(C)nn1C [Compound 33] | 92 | 99 | 100 | 100 | 99 | 85 |  |  |  |  |  |  |  |  |  |  |  | 
10 | Cc1nn(C)c(Nc2ccc(Cl)cc2[N+](=O)[O-])c1-c1ccc(F)cc1F [Compound 78] | 0 | 68 | 89 | 100 | 95 | 0 |  |  |  |  |  |  |  |  |  |  |  | 
11 | Cc1nn(C)c(Nc2c(Cl)cc(F)cc2[N+](=O)[O-])c1-c1ccc(F)cc1F [Compound 67] | 69 | 98 | 100 | 100 | 89 | 33 |  |  |  |  |  |  |  |  |  |  |  | 
12 | Cc1nn(C)c(Nc2cccc(Cl)c2[N+](=O)[O-])c1-c1c(F)cccc1F [Compound 99] | 0 | 24 | 0 | 99 | 0 | 0 |  |  |  |  |  |  |  |  |  |  |  | 
13 | Cc1nn(C)c(Nc2c(F)cccc2[N+](=O)[O-])c1-c1ccc(Cl)cc1Cl [Compound 69] | 77 | 100 | 100 | 100 | 97 | 99 |  |  |  |  |  |  |  |  |  |  |  | 
